Measurements from patent publication US12102086B2, “Antimicrobial peptide Spampcin56-86 from Scylla paramamosain and applications thereof” (XIAMEN UNIVERSITY, priority 2021, dated 2024).
Residues, ends and D or L forms follow the SMILES beside them.

Assays:
[1] = system: S. aureus QZ19132
[2] = system: F. oxysporum; conditions: CGMC NO. 3.6785, fungi
[3] = system: E. faecalis; assay: MIC and MBC determination; assay type: cell-based, Enterococcus Faecalis; conditions: CGMC NO. 1.2135, Gram-positive
[4] = system: P. fluorescens; assay: MIC and MBC determination; assay type: cell-based, Pseudomonas fluorescens; conditions: CGMC NO. 1.3202, Gram-negative
[5] = system: A. sobria; conditions: Gram-negative
[6] = system: A. baumannii; conditions: CGMC NO. 1.6769, Gram-negative
[7] = system: L. monocytogenes; assay: MIC and MBC determination; assay type: cell-based, Listeria Monocytogenes; conditions: CGMC NO. 1.10753, Gram-positive
[8] = system: S. epidermidis; conditions: CGMC NO. 1.4260, Gram-positive
[9] = system: E. tarda; conditions: Gram-negative
[10] = system: E. coli
[11] = system: E. faecium; assay: MIC and MBC determination; assay type: cell-based, Enterococcus Faecium; conditions: CGMC NO. 1.131, Gram-positive
[12] = system: F. solani; conditions: CGMC NO. 3.5840, fungi
[13] = system: S. aureus
[14] = system: A. baumannii QZ20143
[15] = system: A. baumannii QZ20142; conditions: A. baumannii QZ20142, drug-resistant clinical isolate
[16] = system: A. hydrophila; conditions: CGMC NO. 1.2017, Gram-negative
[17] = system: P. aeruginosa; conditions: CGMC NO. 1.2421, Gram-negative

Q: Which MBC [1] does the source give for `CC(C)C[C@H](NC(=O)CNC(=O)[C@H](Cc1c[nH]cn1)NC(=O)[C@H](C)NC(=O)[C@H](C)NC(=O)[C@H](CCCNC(=N)N)NC(=O)[C@@H](N)CCCNC(=N)N)C(=O)N[C@@H](CC(C)C)C(=O)N1CCC[C@H]1C(=O)N[C@@H](CCCNC(=N)N)C(=O)N[C@@H](CC(C)C)C(=O)N[C@@H](CCCNC(=N)N)C(=O)N[C@@H](C)C(=O)N1CCC[C@H]1C(=O)N1CCC[C@H]1C(=O)N1CCC[C@H]1C(=O)N[C@@H](Cc1ccccc1)C(=O)N[C@@H](Cc1c[nH]cn1)C(=O)N[C@@H](CCCCN)C(=O)N[C@@H](CCCNC(=N)N)C(=O)N[C@@H](CS)C(=O)N[C@H](C(=O)N[C@@H](CS)C(=O)N[C@@H](CC(C)C)C(=O)N[C@@H](CS)C(=O)N[C@@H](CCCNC(=N)N)C(=O)N[C@H](C(=O)N[C@@H](C)C(=O)N1CCC[C@H]1C(=O)N1CCC[C@H]1C(=O)N1CCC[C@H]1C(=O)O)[C@@H](C)O)C(C)C` [Spampcin56-86] (H-RRAAHGLLPRLRAPPPFHKRCVCLCRTAPPP-OH; N-terminus and C-terminus assumed) here?
A: 12 to 24 µM

Q: What about the MBC [2] of the same molecule?
A: 3 to 6 µM

Q: What about the MIC [2] of the same molecule?
A: 3 to 6 µM

Q: What about the MBC [3] of the same molecule?
A: 1.5-3^ μM

Q: And the MIC [3]?
A: 1.5-3^ μM

Q: And the MBC [4]?
A: 1.5-3^ μM

Q: What about the MIC [4] of the same molecule?
A: 1.5-3^ μM

Q: What about the MBC [5] of the same molecule?
A: 3 to 6 µM

Q: And the MIC [5]?
A: 3 to 6 µM

Q: What about the MBC [6] of the same molecule?
A: 3 to 6 µM

Q: And the MIC [6]?
A: 3 to 6 µM

Q: What about the MBC [7] of the same molecule?
A: 1.5-3^ μM

Q: What about the MIC [7] of the same molecule?
A: 1.5-3^ μM

Q: What about the MBC [8] of the same molecule?
A: 3 to 6 µM

Q: What about the MIC [8] of the same molecule?
A: 3 to 6 µM

Q: And the MBC [9]?
A: 24 to 48 µM

Q: What about the MIC [9] of the same molecule?
A: 3 to 6 µM

Q: And the MBC [10]?
A: 3 to 6 µM

Q: What about the MIC [10] of the same molecule?
A: 3 to 6 µM

Q: And the MBC [11]?
A: 1.5-3^ μM

Q: What about the MIC [11] of the same molecule?
A: 0 to 1.5 µM

Q: What about the MBC [12] of the same molecule?
A: 3 to 6 µM

Q: What about the MIC [12] of the same molecule?
A: 1.5-3^ μM

Q: And the MBC [13]?
A: 3 to 6 µM

Q: And the MIC [14]?
A: 3 to 6 µM

Q: What about the MBC [15] of the same molecule?
A: 3 to 6 µM

Q: What about the MIC [15] of the same molecule?
A: 3 to 6 µM

Q: And the MBC [16]?
A: 6 to 12 µM

Q: What about the MIC [16] of the same molecule?
A: 6 to 12 µM

Q: What about the MBC [17] of the same molecule?
A: 3 to 6 µM

Q: And the MIC [17]?
A: 1.5-3^ μM
